Reference: patent US20190365745A1, “USE OF CHRONIC TREATMENT WITH ATR INHIBITORS TO SENSITIZE CANCER CELLS TO PARP INHIBITORS” (Cornell University, priority 2018, published 2019)

Experiments:
Type in all cases: cell-based, Human
U2OS cells [1] = assay: DR-GFP assay of HR-mediated repair
Method: (§1) Human U2OS, HCT116, hTERT RPE-1, HEK293T, HeLa, U87, T98G, A2780, and human skin fibroblast cells (GM08398 and GM18366) were grown in DMEM media supplemented with 10% bovine calf serum, penicillin/streptomycin and non-essential amino acids. SV40 large T antigen transformed hTERT RPE-1 cells were generated by infecting hTERT RPE-1 cells with a SV40 large T antigen (SV40 LT)-expressing retrovirus and were selected using 500 μg/ml G418. The stable SV40 large T antigen transformed hTERT RPE-1 cell line was then maintained in culture media supplemented 500 μg/ml G418. For chronic treatment with ATR inhibitor (ATRi, VE-821) or ATM inhibitor (ATMi, KU-55933), cells were maintained in media with 5 μM ATR or ATM inhibitor respectively for 8 days before cells were subjected to western blot analysis, proteomic analysis, DR-GFP/EJ5-GFP assay or immunofluorescent staining. For CHK1 inhibitor (UCN-01), cells were treated for 5 days with 0.2 μM of inhibitor before the analysis. Primary human fibroblast cells from control subjects (GM08398) and patients with Seckel syndrome (GM18366, ATR-defective) were obtained from Coriell Institute for Medical Research, Camden, N.J.
For the DR-GFP assay, cells (U2OS, HCT116, hTERT RPE-1, HEK293T, HeLa, U87, T98G, A2780, 293-T-REX-E2F6 cells and SV40 large T antigen transformed hTERT RPE-1) were transfected with the mCherry plasmid or DR-GFP reporter plasmid (pDR-GFP; addgene plasmid 26475) together with a plasmid coding for I-SceI (pCBASceI; addgene plasmid 26477) or DR-GFP reporter plasmid together with an empty plasmid pCAGGS. Two days after transfection, cells were trypsinized, resuspended in PBS and then analyzed by flow cytometry using FACSAria Fusion or Accuri C6 cytometer (BD). In each experiment, the percentage of GFP-positive cells from the sample transfected with empty plasmid pCAGGS was subtracted from the percentage of GFP-positive cells in the sample transfected with I-SceI. The GFP percentage was then normalized by the mCherry transfection efficiency. Each graph was plotted based on at least 3 independent experiments showing mean±SEM (N≥3). For the EJ5-GFP assay, EJ5-GFP reporter plasmid (pimEJ5GFP, addgene plasmid 44026) was used instead of DR-GFP reporter plasmid and the assay was performed as described for DR-GFP assay.

U2OS cells [2] = assay: Immunoblotting of HR factor abundance; conditions: CHK1 inhibitor 0.2 μM, 5 days
Method: FIG. 5A is a schematic diagram of the SILAC/MS experiment. FIG. 5B is a quadrant diagram of the SILAC/MS experiment. Each dot represents a different identified protein. Proteins with abundance reduced two-fold or more after ATRi treatment are shown in the upper-left corner (white quadrant). FIG. 5C is a WB analysis of U2OS cells after 8 days of chronic treatment with 5 μM of ATRi or ATMi. FIG. 5D is a time course WB analysis of U2OS cells during chronic treatment with 5 μM ATRi. FIG. 5E is a WB analysis of U2OS cells at distinct cell cycle stages. Cells were treated with 1 mM hydroxyurea (HU) or 50 ng/ml nocodazole (Noc) for 24 hours. HU treated cells were released for 2.5 hours in HU-free media. FIG. 5F is a WB analysis of U2OS cells untreated or treated for 8 days with 5 μM ATRi.
as §1
(§2) Cells were harvested and lysed in modified radioimmunoprecipitation assay (RIPA) buffer (50 mM Tris-HCl pH 7.5, 150 mM NaCl, 1% tergitol, 0.25% sodium deoxycholate, 5 mM EDTA) supplemented with Complete EDTA-free protease inhibitor cocktail (Roche), 1 mM PMSF, 5 mM sodium fluoride, 10 mM β-glycerol-phosphate and 0.4 mM sodium orthovanadate. Whole cell lysates were cleared with 5 minute centrifugation at 13,000 rpm at 4° C. and mixed with 3×SDS sample buffer (bromophenol blue, stacking gel buffer, 50% glycerol, 3% SDS and 60 mM DTT). After being resolved on SDS-PAGE gels, proteins were then transferred onto polyvinylidene difluoride (PVDF) membranes and detected with designated antibodies.

U2OS cells [3] = assay: Cell cycle analysis (propidium iodide, flow cytometry); conditions: CHK1i 0.2 μM, 5 days
Method: Cells were harvested by standard trypsinization and fixed with 70% ethanol. After fixation, cells from each sample were resuspended in PBS, permeabilized using 0.1% Triton X-100 and treated with RNase A (0.8 mg/ml). Then cells were stained with propidium iodide and analyzed by flow cytometry using FACSAria Fusion (BD) or Accuri C6 cytometer (BD) to determine the fraction of cells in different stages of the cell cycle.

U2OS cells [4] = assay: Real time PCR of mRNA levels; conditions: ATRi 5 μM 8 days or CHK1i 0.2 μM 5 days, normalized to GAPDH
Excerpt: FIG. 9B is a bar graph showing the analysis of HR-mediated repair using the DR-GFP system. Relative fold change of GFP positive U2OS cells treated with CHK1i compared to DMSO treatment control. (Error bars=SEM, N=4, ****P-value<0.0001; one sample-t-test was used for the statistical analysis). FIGS. 9C-9D show a histogram showing representative FACS data (FIG. 9C) and a bar graph showing quantitation of G1, S and G2/M population for cell cycle analysis of CHK1i treated cells (FIG. 9D) (Error bars=SD, N=3). FIG. 9E are bar graphs showing real time PCR analysis of total RNA extracted from U2OS cells treated with DMSO, ATRi (5 μM for 8 days) or CHK1i (0.2 μM for 5 days). Values were normalized to GAPDH mRNA levels. (Error bars=SD, N=3). FIG. 9F is a schematic diagram showing a proposed model of how E2F transcription is regulated through ATR-CHK1 signaling. […] FIG. 9H is a bar graph showing DR-GFP analysis of 293-T-REX-E2F6 cells after 8 days of treatment with DMSO or doxycycline. (Error bars=SEM, N=4). FIG. 9I is a histogram showing cell cycle analysis of 293-T-REX-E2F6 cells after 8 days of treatment with DMSO or doxycycline. FIG. 9J is a schematic diagram showing a model depicting multiple roles of ATR in the control of HR capacity.
Cells cultured from 10 cm dish were collected and lysed in 1 ml of TRIzol (Invitrogen). Chloroform was added to the lysed sample to separate RNA. Separated RNA was precipitated by isopropyl alcohol, followed by two washes with 75% ethanol. 1 μg of extracted RNA from each sample was then reverse transcribed with Bio-Rad iScript cDNA synthesis kit. The samples (˜100 ng) were analyzed in a Roche 480 light cycler in a total of 15 μl containing SYBR green mix and primers. The values were calculated using “absolute quantification/2nd derivative max” in lightcycler 480 program and then normalized to the level of GAPDH.

HCT116 cells = assay: Western blot after chronic CHK1i; conditions: chronic CHK1 inhibition
Method: as §2

SMILES: O=c1cc(-c2cccc3c2Sc2ccccc2S3)oc(N2CCOCC2)c1 [ATMi, KU-55933]
- HR-mediated repair efficiency (DR-GFP, GFP positive cells over DMSO) (U2OS cells [1]; 5 μM, chronic 8 days): did not result in major changes in HR-mediated repair efficiency

SMILES: CN[C@@H]1C[C@H]2O[C@@](C)([C@@H]1OC)n1c3ccccc3c3c4c(c5c6ccccc6n2c5c31)C(=O)N[C@@H]4O [CHK1i, UCN-01]
- HR efficiency (DR-GFP) (U2OS cells [1]; CHK1i 0.2 μM, 5 days): sharp decrease in HR efficiency
- Abundance of BRCA1, RAD51, RRM2 and E2F1 (WB) (U2OS cells [2]): severely reduced
- Relative number of S phase cells (U2OS cells [3]): increase in the relative number of S phase cells
- mRNA levels of BRCA1 and RAD51 (U2OS cells [4]): reduction in the mRNA levels of BRCA1 and RAD51
- Level of E2F1 and abundance of other HR proteins (WB) (HCT116 cells): did not lower the level of E2F1 nor the abundance of other HR proteins
